Test results reported in patent publication US6562828B1, “Amidine compounds” (Japan Tobacco Inc., priority 1998, dated 2003).
Counter-ions that a name gives are not always drawn.

Legend:
normal plasma [1] = assay: Determination of prothrombin time (PT), mouse plasma; type: biochemical
Protocol: (§1) Determination of prothrombin time (PT)
(§2) Blood was taken from mouse, rat, crab-eating monkey and healthy human volunteers, and citric acid was added. The blood was centrifuged at 4° C. and 2000 G for 15 min to obtain normal plasma of various animals.
(§3) Purified water (5 μl) containing various concentrations of test compound was added to plasma (45 μl) and the resultant mixtures were used as samples. […] (Baxter) was prepared and heated at […] for 5 min, and a sample (50 μl) was admixed with the thrombin reagent (100 μl). The time (PT) until precipitation of fibrin was measured. The drug concentration that doubled the PT hours of the drug untreated group was calculated and taken as CT2.

normal plasma [2] = assay: Determination of prothrombin time (PT), rat plasma; type: biochemical
Protocol: as §1, §2, §3

normal plasma [3] = assay: Determination of prothrombin time (PT), crab-eating monkey plasma; type: biochemical
Protocol: as §1, §2, §3

normal plasma [4] = assay: Determination of prothrombin time (PT), human plasma; type: biochemical
Protocol: as §1, §2, §3

Human FXa [5] = molecular target: T1, Human FXa (Homo sapiens, UniProt P00742); assay: Intravenous administration test in mouse, human FXa inhibitory activity in serum; type: in vivo; conditions: ICR mice, i.v., mean ± S.D., n = 3
T1 construct: Human FXa [Enzyme research Laboratories (USA)] enzyme; purchased Enzyme Research Laboratories (USA)
T1 sequence (P00742 235-488 limits assumed): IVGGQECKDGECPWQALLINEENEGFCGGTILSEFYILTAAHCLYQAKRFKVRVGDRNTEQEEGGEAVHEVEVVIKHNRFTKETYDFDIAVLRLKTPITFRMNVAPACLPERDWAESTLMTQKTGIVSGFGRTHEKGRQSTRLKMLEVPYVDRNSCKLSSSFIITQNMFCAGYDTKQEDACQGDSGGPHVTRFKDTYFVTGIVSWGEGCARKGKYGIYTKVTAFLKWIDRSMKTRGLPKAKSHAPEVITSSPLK
T1 sequence (P00742 41-179 limits assumed): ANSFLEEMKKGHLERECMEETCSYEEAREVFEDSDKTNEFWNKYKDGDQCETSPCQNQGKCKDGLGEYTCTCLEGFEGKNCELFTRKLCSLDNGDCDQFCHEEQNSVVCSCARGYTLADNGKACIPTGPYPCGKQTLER
Protocol: Intravenous Administration Tests in Mouse
A test compound dissolved in physiological saline was intravenously administered to ICR mice (body weight 20-30 g, 4-6 weeks old) and the activity of the test compound was evaluated based on the human FXa inhibitory activity in serum as an indicator.
At 10, 30, 60, 120 min from the intravenous administration, blood was taken from the eye ground using a hematocrit tube. The blood was centrifuged at 9000 G for 5 min and the obtained serum was used for the determination.
(§4) Human FXa inhibitory activity was measured as follows. Human FXa [Enzyme research Laboratories (USA)] enzyme (40 μl, 0.5 U/ml) and a 4-fold diluted plasma sample (40 μl) were incubated in 0.1M Tris-0.2M NaCl buffer (pH 8.4) (40 μl) at 37° C. for 10 min. A synthetic substrate S-2222 (Daiichi Pure Chemical (Tokyo, Japan), 40 μl) adjusted to 0.8 mM was added and the mixture was incubated at 37° C. for 5 min. The reaction was stopped by addition of 60% acetic acid (40 μl) and absorbance at 405 nm was measured by Model 3550 (BIO-RAD). For the control, serum or plasma obtained prior to blood sampling was used for measurement. Human FXa inhibitory activity was calculated as inhibition percentage (%) against control.

Human FXa [6] = molecular target: T1, Human FXa; assay: Oral administration test in mouse, human FXa inhibitory activity in serum; type: in vivo; conditions: ICR mice, mean ± S.D., n = 3
Protocol: as §4
Oral Administration Tests in Mouse
A test compound dissolved in distilled water was orally administered to ICR mice (body weight 20-30 g, 4-6 weeks old) and the activity of the test compound was evaluated based on the human FXa inhibitory activity in serum as an indicator.
At 30, 60, 120, 180 min from the oral administration, blood was taken from the eye ground using a hematocrit tube. The blood was centrifuged at 9000 G for 5 min and the obtained serum was used for the determination. Human FXa inhibitory activity was determined in the same manner as in the test by intravenous administration.

[7] = system: decrease of platelets and formation of FDP by thromboplastin; assay: Blood coagulation model in rat (thromboplastin); type: in vivo; conditions: i.v. 10 min before thromboplastin, mean ± S.D, n = 3; for PLT value: counted 10 min later; for FDP value: measured 30 min later
Protocol: Blood Coagulation Model in Rat
Intravenous administration of thromboplastin (Sigma) to rat promotes coagulation system, which in turn decreases platelets and increases fibrin degradation product (FDP). Thus, the test compound was intravenously administered 10 min before thromboplastin administration and the inhibitory effects of the test compound on the decrease of platelets and the formation of FDP by thromboplastin were studied. The thromboplastin administered had such concentration as to form clots within 20 seconds from the addition of one plasma dose to two thromboplastin doses and was administered in 1 ml/kg dose. Platelets were counted (PLT value) 10 min later on a blood cell counter sysmex F-800 [Dade International Inc. (USA)], and FDP was measured 30 min later using FDP latex reagent for serum [Teikoku Hormone Mfg. Co., Ltd. (Tokyo, Japan)]. In every Example, the PLT value of the thromboplastin untreated group was (106±13)×10^4 and the FDP value of this group was 0±0 μg/ml.

Human FIIa = molecular target: T2, Human FIIa (Homo sapiens, UniProt P00734); assay: Determination of anti-factor IIa (FIIa) activity, synthetic substrate S-2238; type: biochemical; conditions: S-2238, 37° C., pH 8.4, read-out: Experimental Example 2: anti-FIIa activity, IC50
T2 construct: purchased Sigma

| Structure (SMILES) | CT2 (drug concentration that doubled the PT) (normal plasma [1]) | CT2 (drug concentration that doubled the PT) (normal plasma [2]) | CT2 (drug concentration that doubled the PT) (normal plasma [3]) | CT2 (drug concentration that doubled the PT) (normal plasma [4]) | inhibition at 1 mg/kg (Human FXa [5]; 10 minutes) | inhibition at 1 mg/kg (Human FXa [5]; 30 minutes) | inhibition at 1 mg/kg (Human FXa [5]; 60 minutes) | inhibition at 1 mg/kg (Human FXa [5]; 120 minutes) | inhibition at 10 mg/kg (Human FXa [6]; 30 minutes) | inhibition at 10 mg/kg (Human FXa [6]; 60 minutes) | inhibition at 10 mg/kg (Human FXa [6]; 120 minutes) | inhibition at 10 mg/kg (Human FXa [6]; 180 minutes) | PLT value ([7]; dose 0.1 mg/kg) | FDP value ([7]; dose 0.1 mg/kg) | PLT value ([7]; dose 0.3 mg/kg) | FDP value ([7]; dose 0.3 mg/kg) | other results |
| --- | --- | --- | --- | --- | --- | --- | --- | --- | --- | --- | --- | --- | --- | --- | --- | --- | --- |
| CC(=N)N1CC[C@H](Oc2ccc([C@H](Cc3ccc4ccc(C(=N)N)cc4c3)C(=O)O)cc2)C1 [Comparative Example 1, (2S)-2-[4-[(3S)-1-acetimidoylpyrrolidin-3-yloxy]phenyl]-3-[7-amidinonaphthalen-2-yl]propionic acid hydrochloride pentahydrate, reference compound] | 10 µM | 10 µM | 4 µM | 2 µM | 43 ± 3% | 14 ± 2% | 0% | 1 ± 2% | 11 ± 4% | 6 ± 4% | 6 ± 4% | 6 ± 4% | 67 ± 16 ×10^4 blood platelet/μl | 3 ± 2 µg/mL | 100 ± 5 ×10^4 blood platelet/μl | 1 ± 1 µg/mL | PLT value ([7]; dose 0.03 mg/kg): 41 ± 9 ×10^4 blood platelet/μl; FDP value ([7]; dose 0.03 mg/kg): 9 ± 2 µg/mL |
| N=C(N)N1CCc2ccc(OCC3(C(=O)O)CCN(c4ccncc4)CC3)cc2C1 [Example 7, 4-(2-Amidino-1,2,3,4-tetrahydroisoquinolin-7-yloxymethyl)-1-(pyridin-4-yl)piperidine-4-carboxylic Acid Dihydrochloride] | 10 µM | 30 µM |  | 0.5 µM | 64 ± 2% | 54 ± 1% | 46 ± 4% | 30 ± 5% | 48 ± 7% | 40 ± 9% | 26 ± 7% | 18 ± 9% | 66 ± 21 ×10^4 blood platelet/μl | 7 ± 3 µg/mL | 72 ± 10 ×10^4 blood platelet/μl | 4 ± 1 µg/mL | IC50 (Human FIIa): > 10 µM; inhibition at 3 mg/kg (Human FXa [5]; 10 minutes): 82 ± 1%; inhibition at 3 mg/kg (Human FXa [5]; 30 minutes): 78 ± 1%; inhibition at 3 mg/kg (Human FXa [5]; 60 minutes): 72 ± 2%; inhibition at 3 mg/kg (Human FXa [5]; 120 minutes): 59 ± 5%; PLT value ([7]; dose 1 mg/kg): 96 ± 18 ×10^4 blood platelet/μl; FDP value ([7]; dose 1 mg/kg): 0 ± 0 µg/mL |
| N=C(N)N1CCc2ccc(OCC3(C(=O)O)CCN(c4ccncc4)CC3)cc2C1 [Example 67, 4-(2-Amidino-1,2,3,4-tetrahydroisoquinolin-7-yloxymethyl)-1-(pyridin-4-yl)piperidine-4-carboxylic Acid Methanesulfonate] |  |  | 5 µM |  |  |  |  |  |  |  |  |  |  |  |  |  |  |
